# Patent US7569554B2, “Synergistic treatment of cancer using immunomers in conjunction with therapeutic agents” (Idera Pharmaceuticals, Inc., priority 2003, dated 2009)
# Experiments:
# [1] = tested on: vertebrate cells, preferably BALB/c mouse spleen cells or human PBMC; assay: Immunostimulatory activity, IL-12/IL-6 secretion (Tables 9-12, cell culture not given); type: cell-based
# Description: (§1) The secretion of IL-12 and IL-6 in vertebrate cells, preferably BALB/c mouse spleen cells or human PBMC, was measured by sandwich ELISA. The required reagents including cytokine antibodies and cytokine standards were purchased form PharMingen, San Diego, Calif. ELISA plates (Costar) were incubated with appropriate antibodies at 5 μg/mL in PBSN buffer (PBS/0.05% sodium azide, pH 9.6) overnight at 4° C. and then blocked with PBS/i % BSA at 37° C. for 30 minutes. Cell culture supernatants and cytokine standards were appropriately diluted with PBS/10% FBS, added to the plates in triplicate, and incubated at 25° C. for 2 hours. Plates were overlaid with 1 μg/mL appropriate biotinylated antibody and incubated at 25° C. for 1.5 hours. The plates were then washed extensively with PBS-T Buffer (PBS/0.05% Tween 20) and further incubated at 25° C. for 1.5 hours after adding streptavidin conjugated peroxidase (Sigma, St. Louis, Mo.). The plates were developed with Sure Blue™ (Kirkegaard and Perry) chromogenic reagent and the reaction was terminated by adding Stop Solution (Kirkegaard and Perry). The color change was measured on a Ceres 900 HDI Spectrophotometer (Bio-Tek Instruments).
# (§2) In all instances, the levels of IL-12 and IL-6 in the cell culture supernatants were calculated from the standard curve constructed under the same experimental conditions for IL-112 and IL-6, respectively. The levels of IL-10, IFN-gamma and TNF-α in the cell culture supernatants were calculated from the standard curve constructed under the same experimental conditions for IL-10, IFN-gamma and TNF-α, respectively.
# [2] = tested on: BALB/c mouse spleen cells; assay: Cytokine secretion in BALB/c mouse spleen cell cultures (sandwich ELISA); type: cell-based; settings: for Induction of IL-12: FIG. 7A; for Induction of IL-12 / Induction of IL-6: compared with Oligo 1; for Induction of IL-6: FIG. 7B
# Description: as §1, §2
# [3] = tested on: human PBMC; assay: Cytokine secretion in human PBMC cultures (sandwich ELISA); type: cell-based
# Description: as §1
# Human peripheral blood mononuclear cells (PBMCs) were isolated from peripheral blood of healthy volunteers by Ficoll-Paque density gradient centrifugation (Histopaque-1077, Sigma, St. Louis, Mo.). Briefly, heparinized blood was layered onto the Histopaque-1077 (equal volume) in a conical centrifuge and centrifuged at 400×g for 30 minutes at room temperature. The buffy coat, containing the mononuclear cells, was removed carefully and washed twice with isotonic phosphate buffered saline (PBS) by centrifugation at 250×g for 10 minutes. The resulting cell pellet was then resuspended in RPMI 1640 medium containing L-glutamine (MediaTech, Inc., Hemdon, Va.) and supplemented with 10% heat inactivated FCS and penicillin-streptomycin (100 U/ml). Cells were cultured in 24 well plates for different time periods at 1×10^6 cells/ml/well in the presence or absence of oligonucleotides. At the end of the incubation period, supernatants were harvested and stored frozen at −70° C. until assayed for various cytokines including IL-6 (BD Pharmingen, San Diego, Calif.), IL-10 (BD Pharmingen), IL-12 (BioSource International, Camarillo, Calif.), IFN-α (BioSource International) and -γ(BD Pharmingen) and TNF-α(BD Pharmingen) by sandwich ELISA.
# as §2
# [4] = tested on: BALB/c mice; assay: In vivo serum cytokine induction; design: species or system mouse; settings: 4 hrs
# Description: To assess serum cytokine levels, BALB/c mice (n=5) were injected intraperitoneally (i.p), subcutaneously (s.c) or intramuscularly (i.m) with IMO compounds at 10 mg/kg (single dose). Sera was collected by retro-orbital bleeding at 4 hrs of IMO administration and determined IL-112 and IL-6 by sandwich ELISA. Cytokine antibodies and standards were purchased from PharMingen (San Diego, Calif.).
# To evaluate the immunopharmacological effects in vivo, IMO compounds, CpG immunomers, and non-CpG oligos were administered to BALB/c mice i.p, s.c or i.m at a dose of 10 mg/kg and their serum was evaluated for IL-12 and IL-6 after 4 hrs.
# [5] = Intraperitoneal (i.p), 10 mg/kg
substance,measurement,setting,value
"Immunomer 58: SEQ ID NO: 33, 11mer (DNA TCTTTCNTTCT; listed as DNA, chemistry not fully specified)",IL-6,"[1]; @ 3 μg/mL, Table 9",283 pg/mL
same,IL-12,"[1]; @ 3 μg/mL, Table 9",303 pg/mL
"Immunomer 62: SEQ ID NO: 35, 11mer (DNA TCTGTCNTTCT; listed as DNA, chemistry not fully specified)",IL-6,"[1]; 3 μg/mL, Table 10",296 pg/mL
same,IL-12,"[1]; 3 μg/mL, Table 10",787 pg/mL
"Immunomer 81: SEQ ID NO: 37, 10mer (DNA CTGACGTTCT; listed as DNA, chemistry not fully specified)",IL-12,"[1]; 0.3 μg/mL, Table 12",3625 pg/mL
same,IL-6,"[1]; 1 μg/mL, Table 12",2642 pg/mL
"Immunomer 74: SEQ ID NO: 37, 10mer (DNA CTGACGTTCT; DNA, backbone and methylation of C not given here; immunomer: two 10mer chains joined by non-nucleotidic linker, linker varies, further chemistry not fully specified)",IL-12,"[1]; 0.3 μg/mL, Table 12",1162 pg/mL
same,IL-6,"[1]; 1 μg/mL, Table 12",669 pg/mL
"Immunomer 73: SEQ ID NO: 37, 10mer (DNA CTGACGTTCT; listed as DNA, chemistry not fully specified)",IL-12,"[1]; 0.3 μg/mL, Table 12",697 pg/mL
same,IL-6,"[1]; 1 μg/mL, Table 12",1454 pg/mL
"Immunomer 82: SEQ ID NO: 37, 10mer (DNA CTGACGTTCT; listed as DNA, chemistry not fully specified)",IL-12,"[1]; 0.3 μg/mL, Table 12",4248 pg/mL
same,IL-6,"[1]; 1 μg/mL, Table 12",2988 pg/mL
"5′-CTATCTGACGTTCTCTGT-3′ (DNA, all phosphorothioate, methylation of C not given here) [Oligonucleotide 4]",IL-12,"[2]; 0.3 μg/mL, Table 13",225 pg/mL
same,IL-6,"[2]; 1 μg/mL, Table 13",1462 pg/mL
same,IL-12,"[1]; 0.3 μg/mL, Table 12",257 pg/mL
same,IL-6,"[1]; 1 μg/mL, Table 12",635 pg/mL
same,IL-6,"[1]; 3 μg/mL, Table 11",1892 pg/mL
same,IL-12,"[1]; 3 μg/mL, Table 11",1176 pg/mL
"Immunomer 61: SEQ ID NO: 34, 11mer (DNA TCTGTNGTTCT; listed as DNA, chemistry not fully specified)",IL-6,"[1]; 3 μg/mL, Table 10",470 pg/mL
same,IL-12,"[1]; 3 μg/mL, Table 10",1127 pg/mL
"Immunomer 67: SEQ ID NO: 6, 14mer (DNA CTGANGTTCTCTGT; listed as DNA, chemistry not fully specified)",IL-6,"[1]; 3 μg/mL, Table 11",152 pg/mL
same,IL-12,"[1]; 3 μg/mL, Table 11",548 pg/mL
"Immunomer 68: SEQ ID NO: 7, 14mer (DNA CTGACNTTCTCTGT; listed as DNA, chemistry not fully specified)",IL-6,"[1]; 3 μg/mL, Table 11",1020 pg/mL
same,IL-12,"[1]; 3 μg/mL, Table 11",1052 pg/mL
3′-TTCCAGCTCGCAAGAG-5′-5′-GAGAACGCTCGACCTT-3′ [Immunomer 3],Induction of IL-12,[2],equal or weaker ability to produce immune stimulation compared with oligo 1
same,Induction of IL-6,[2],equal or weaker ability to induce immune stimulation compared with Oligo 1
"5′-CTATCTGTCGTTCTCTGT-3′ (phosphorothioate, further chemistry not given here) [Oligo 25, 18mer (PS)]",IFN-γ,[3]; donor 1 (D1),125 pg/mL
same,IL-6,[3]; donor 1 (D1),3077 pg/mL
same,IL-10,[3]; donor 1 (D1),37 pg/mL
same,IL-12,[3]; donor 1 (D1),184 pg/mL
same,TNF-α,[3]; donor 1 (D1),537 pg/mL
same,IFN-γ,[3]; donor 2 (D2),84 pg/mL
same,IL-6,[3]; donor 2 (D2),5369 pg/mL
same,IL-10,[3]; donor 2 (D2),88 pg/mL
same,IL-12,[3]; donor 2 (D2),332 pg/mL
same,IL-6,"[1]; 3 μg/mL, Table 10",339 pg/mL
same,IL-12,"[1]; 3 μg/mL, Table 10",379 pg/mL
"Immunomer 70: SEQ ID NO: 24, 11mer (DNA TCTGACNTTCT; listed as DNA, chemistry not fully specified)",IL-6,"[1]; 3 μg/mL, Table 11",1741 pg/mL
same,IL-12,"[1]; 3 μg/mL, Table 11",1780 pg/mL
"Immunomer 76: SEQ ID NO: 37, 10mer (DNA CTGACGTTCT; DNA, backbone and methylation of C not given here; immunomer: two 10mer chains joined by non-nucleotidic linker, linker varies, further chemistry not fully specified)",IL-12,"[1]; 0.3 μg/mL, Table 12",563 pg/mL
same,IL-6,"[1]; 1 μg/mL, Table 12",705 pg/mL
"Immunomer 66: SEQ ID NO: 5, 18mer (DNA CTATCTGACNTTCTCTGT; listed as DNA, chemistry not fully specified)",IL-6,"[1]; 3 μg/mL, Table 11",464 pg/mL
same,IL-12,"[1]; 3 μg/mL, Table 11",627 pg/mL
"Immunomer 65: SEQ ID NO: 4, 18mer (DNA CTATCTGANGTTCTCTGT; listed as DNA, chemistry not fully specified)",IL-6,"[1]; 3 μg/mL, Table 11",192 pg/mL
same,IL-12,"[1]; 3 μg/mL, Table 11",443 pg/mL
"Immunomer 79: SEQ ID NO: 37, 10mer (DNA CTGACGTTCT; listed as DNA, chemistry not fully specified)",IL-12,"[1]; 0.3 μg/mL, Table 12",2255 pg/mL
same,IL-6,"[1]; 1 μg/mL, Table 12",2034 pg/mL
"Immunomer 75: SEQ ID NO: 37, 10mer (DNA CTGACGTTCT; DNA, backbone and methylation of C not given here; immunomer: two 10mer chains joined by non-nucleotidic linker, linker varies, further chemistry not fully specified)",IL-12,"[1]; 0.3 μg/mL, Table 12",1074 pg/mL
same,IL-6,"[1]; 1 μg/mL, Table 12",1375 pg/mL
"Immunomer 69: SEQ ID NO: 36, 11mer (DNA TCTGANGTTCT; listed as DNA, chemistry not fully specified)",IL-6,"[1]; 3 μg/mL, Table 11",2724 pg/mL
same,IL-12,"[1]; 3 μg/mL, Table 11",2050 pg/mL
"Immunomer 57: SEQ ID NO: 32, 11mer (DNA TCTTTNGTTCT; listed as DNA, chemistry not fully specified)",IL-6,"[1]; @ 3 μg/mL, Table 9",365 pg/mL
same,IL-12,"[1]; @ 3 μg/mL, Table 9",591 pg/mL
"Immunomer 77: SEQ ID NO: 37, 10mer (DNA CTGACGTTCT; DNA, backbone and methylation of C not given here; immunomer: two 10mer chains joined by non-nucleotidic linker, linker varies, further chemistry not fully specified)",IL-12,"[1]; 0.3 μg/mL, Table 12",264 pg/mL
same,IL-6,"[1]; 1 μg/mL, Table 12",543 pg/mL
"Immunomer 78: SEQ ID NO: 37, 10mer (DNA CTGACGTTCT; DNA, backbone and methylation of C not given here; immunomer: two 10mer chains joined by non-nucleotidic linker, linker varies, further chemistry not fully specified)",IL-12,"[1]; 0.3 μg/mL, Table 12",1750 pg/mL
same,IL-6,"[1]; 1 μg/mL, Table 12",2258 pg/mL
"Immunomer 83: SEQ ID NO: 37, 10mer (DNA CTGACGTTCT; listed as DNA, chemistry not fully specified)",IL-12,"[1]; 0.3 μg/mL, Table 12",1241 pg/mL
same,IL-6,"[1]; 1 μg/mL, Table 12",1964 pg/mL
"Immunomer 80: SEQ ID NO: 37, 10mer (DNA CTGACGTTCT; listed as DNA, chemistry not fully specified)",IL-12,"[1]; 0.3 μg/mL, Table 12",1493 pg/mL
same,IL-6,"[1]; 1 μg/mL, Table 12",1197 pg/mL
5-GAGAACGCTCGACCTT-3′-3′-TTCCAGCTCGCAAGAG-5′ [Immunomer 2],Induction of IL-12,[2],stronger inducer of IL-12 than monomeric Oligo 1
same,Induction of IL-6,[2],stronger inducer of IL-6 than monomeric Oligo 1
same,"Elevation of IL-12, IL-6 and IL-10",[2]; FIGS. 7A-C,"elevates IL-12 and IL-6, but not IL-10 at lower concentrations than Oligonucleotides 1 or 3"
"5′-CTATCTCACCTTCTCTGT-3′ (DNA, backbone not given here) [Non-CpG, reference compound]",Serum IL-12 induction,"[4]; 10 mg/kg i.p, s.c or i.m",insignificant
same,Serum IL-6 induction,"[4]; 10 mg/kg, all three routes of administration",insignificant
same,IL-12 (serum),"[4]; Intramuscular (i.m), 10 mg/kg",1.6 ± 0.07 ng/mL
same,IL-6 (serum),[4]; [5],0.7 ± 0.3 ng/mL
same,IL-12 (serum),[4]; [5],0.86 ± 0.5 ng/mL
same,IL-12 (serum),"[4]; Subcutaneous (s.c), 10 mg/kg",1.7 ± 0.04 ng/mL
5′-CTCACTTTCGTTCTCTGT-3′ [Oligo 51],IL-6,"[1]; @ 3 μg/mL, Table 9",348 pg/mL
same,IL-12,"[1]; @ 3 μg/mL, Table 9",404 pg/mL
